Consider 4 compounds from ChEMBL document CHEMBL3271946, “Synthesis and adrenoreceptor blocking action of aziridinium ions derived from phenoxybenzamine and dibenamine” (J Med Chem, 1976).

For data set [1], the target named is T1, Adrenergic receptor alpha (Rattus norvegicus) (UniProt P15823+P23944+P43140+P22086+P19328+P22909). Kind of data set: Antagonist activity at alpha-adrenergic receptor in blockade of norepinephrine-induced response in rat vas deferens after 3 mins. In kind it is tissue-based.
Data set [2] in a line: Half life in 0.025 M NaHCo3 solution assessed as compound cyclization at 5x10'-4 M. In kind it is physicochemical.
Data set [3] can be described thus: Half life in 80% aqueous Me2CO solution assessed as compound cyclization at 5x10'-4 M. Type of data set: physicochemical. To be noted: 80% aqueous acetone (Me2CO) solution.
The next data set has as its system Vas deferens. Kind of data set: Blockade of serotonin-induced response in rat vas deferens after 3 mins. In kind it is functional, tissue-based.
Data set [4] concerns the target T1, Adrenergic receptor alpha (Rattus norvegicus). Kind of data set: Antagonist activity at alpha-adrenergic receptor in blockade of norepinephrine-induced response in rat vas deferens after 3 mins measured after compound washout. In kind it is tissue-based.
A short description of data set [5]: Half life in krebs solution assessed as hydrolysis at 0.003 M at 37 degC. In kind it is physicochemical.

The source made the active and inactive calls. The rule behind the calls is not given here.

The term half-life denotes the time in which the quantity being followed falls by half. As for `Cl.ClCCN(Cc1ccccc1)Cc1ccccc1`, the inhibition entry (in data set [1]; with Vas deferens; in data set [4]) was “Active” in each case. Also, the half-life at 500 µM in data set [2] came out at 6.1 min; in data set [3], 1.6 min.

In the case of `CC(COc1ccccc1)N(CCCl)Cc1ccccc1.Cl` (stereo not drawn) [PHENOXYBENZAMINE HYDROCHLORIDE], the inhibition entry (in data set [1]; with Vas deferens; in data set [4]) was “Active” in each case. In addition, the half-life at 500 µM is 2.3 min in data set [2] and 0.61 min in data set [3].

In the case of `[O-][Cl+3]([O-])([O-])[O-].c1ccc(C[N+]2(Cc3ccccc3)CC2)cc1`, the inhibition result (in data set [1]; in the data set with Vas deferens; in data set [4]) was “Active” in each case. Besides, the half-life at 0.003 M in data set [5] came out at 14 min.

With `CC(COc1ccccc1)[N+]1(Cc2ccccc2)CC1.[O-][Cl+3]([O-])([O-])[O-]` (stereo not drawn), the inhibition result (in data set [1]; in the data set with Vas deferens; in data set [4]) was “Active” in each case. Also, in data set [5], the half-life at 0.003 M came out at 19 min.
